# Structures can show the parent of a compound that is named as a salt.
# Target: T1, rh beta tryptase (Homo sapiens, UniProt Q15661)
# T1 construct: purchased Promega
# Experiment: tryptase inhibition in vitro test (cleavage of N-p-tosyl-Gly-Pro-Lys-para-nitroaniline, p-nitroaniline measured at 405 nm)
# Type: biochemical
# Details: rh beta tryptase 0.91 U/ml, substrate 0.6 mM, Tris HCl buffer with calcium and heparin, pH 7.4, 37° C., 5 minutes incubation; read-out: Tryptase-inhibiting activity
# Protocol: The compounds according to the invention are characterised by their tryptase-inhibiting activity. This ability to inhibit tryptase was investigated using the test described below.
# The measurement is carried out in Tris HCl buffer (100 mM), which additionally contains calcium (5 mM) and heparin ([…]), at pH 7.4. The standard used is rh beta tryptase which may be obtained commercially from Promega, for example. The substrate used is N-p-tosyl-Gly-Pro-Lys-para-nitroaniline in a concentration of 0.6 mM. The substrate is digested with tryptase to form p-nitroaniline which can be measured at 405 nm. Usually, an incubation period of 5 minutes and an incubation temperature of 37° C. are chosen. The enzyme activity used is 0.91 U/ml. The measurements are carried out in an Autoanalyser (Cobas Bio) made by Hofmann LaRoche. The potential inhibitory substances are used in concentrations of 10 μM in the screening, the inhibition of the tryptase being given in percent. The IC50 is determined at over 70% inhibition (concentration at which 50% of the enzyme activity is inhibited). After 5 minutes' pre-incubation of the potential inhibitory substances, the substrate is added to start the reaction, the formation of p-nitroaniline being taken as a measurement of the enzyme activity after 5 minutes, after testing the linearity.
# T1 sequence (Q15661 31-275): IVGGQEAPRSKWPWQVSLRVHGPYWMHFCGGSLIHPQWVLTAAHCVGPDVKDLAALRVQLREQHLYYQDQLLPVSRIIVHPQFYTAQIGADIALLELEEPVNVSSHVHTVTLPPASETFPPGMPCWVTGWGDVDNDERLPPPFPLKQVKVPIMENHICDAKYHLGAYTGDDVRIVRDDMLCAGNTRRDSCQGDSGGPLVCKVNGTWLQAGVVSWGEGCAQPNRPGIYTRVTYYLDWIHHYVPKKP
row,Compound,IC50
1,"CN(CCC(=O)O)C1CCN(CC(=O)N(Cc2cccc3ccccc23)c2ccc3c(c2)nc(CCc2ccc(C(=N)N)cc2)n3C)CC1 [Example 25, N-{2-[2-(4-Amidinophenyl)-ethyl]-1-methyl-benzimidazol-5-yl}-N-[naphth-1-ylmethyl]-2-[4-(N-methyl-N-propionic acid)-piperid-1-yl]-acetamide, diacetate]",31 to 1000 nM
2,"Cn1c(CCc2ccc(C(=N)N)cc2)nc2cc(N(Cc3cccc4ccccc34)C(=O)CN3CCC(Nc4cccnc4)CC3)ccc21 [Example 26, N-{2-[2-(4-Amidinophenyl)-ethyl]-1-methyl-benzimidazol-5-yl}-N-[naphth-1-ylmethyl]-2-[4-(3-pyridylamino)-piperid-1-yl]-acetamide, dihydrochloride]",0.5 to 3 nM
3,"Cn1c(CCc2ccc(C(=N)N)cc2)nc2cc(N(Cc3cccc4ccccc34)C(=O)CN3CCC(Nc4ccncc4)CC3)ccc21 [Example 27, N-{2-[2-(4-Amidinophenyl)-ethyl]-1-methyl-benzimidazol-5-yl}-N-[naphth-1-ylmethyl]-2-[4-(4-pyridylamino)-piperid-1-yl]-acetamide, dihydrochloride]",4 to 30 nM
4,"CN(C(=O)CN1CCC(Nc2ccccn2)CC1)c1ccc2c(c1)nc(CCc1ccc(C(=N)N)cc1)n2C [Example 28, N-{2-[2-(4-Amidinophenyl)-ethyl]-1-methyl-benzimidazol-5-yl}-N-methyl-2-[4-(2-pyridylamino)-piperid-1-yl]-acetamide, dihydrochloride]",4 to 30 nM
5,"CN(C(=O)CN1CCC(NCc2ccccn2)CC1)c1ccc2c(c1)nc(CCc1ccc(C(=N)N)cc1)n2C [Example 29, N-{2-[2-(4-Amidinophenyl)-ethyl]-1-methyl-benzimidazol-5-yl}-N-methyl-2-[4-(2-pyridylmethylamino)-piperid-1-yl]-acetamide, dihydrochloride]",31 to 1000 nM
6,"CN(C(=O)CN1CCC(Nc2ccc3ccccc3c2)CC1)c1ccc2c(c1)nc(CCc1ccc(C(=N)N)cc1)n2C [Example 30, N-{2-[2-(4-Amidinophenyl)-ethyl]-1-methyl-benzimidazol-5-yl}-N-methyl-2-[4-(2-naphthylamino)-piperid-1-yl]-acetamide, dihydrochloride]",0.5 to 3 nM
7,"CN(C(=O)CN1CCC(Nc2ccccc2Cl)CC1)c1ccc2c(c1)nc(CCc1ccc(C(=N)N)cc1)n2C [Example 31, N-{2-[2-(4-Amidinophenyl)-ethyl]-1-methyl-benzimidazol-5-yl}-N-methyl-2-[4-(2-chlorophenylamino)-piperid-1-yl]-acetamide, dihydrochloride]",0.5 to 3 nM
8,"CN(C(=O)CN1CCC(Nc2ccc(Cl)cc2Cl)CC1)c1ccc2c(c1)nc(CCc1ccc(C(=N)N)cc1)n2C [Example 32, N-{2-[2-(4-Amidinophenyl)-ethyl]-1-methyl-benzimidazol-5-yl}-N-methyl-2-[4-(2,4-dichlorophenylamino)-piperid-1-yl]-acetamide, dihydrochloride]",0.5 to 3 nM
9,"CN(C(=O)CN1CCC(Nc2ccc(F)cc2Cl)CC1)c1ccc2c(c1)nc(CCc1ccc(C(=N)N)cc1)n2C [Example 33, N-{2-[2-(4-Amidinophenyl)-ethyl]-1-methyl-benzimidazol-5-yl}-N-methyl-2-[4-(2-chloro-4-fluorophenylamino)-piperid-1-yl]-acetamide, dihydrochloride]",0.5 to 3 nM
10,"CN(C(=O)CN1CCC(N(C)c2ccc3ccccc3c2)CC1)c1ccc2c(c1)nc(CCc1ccc(C(=N)N)cc1)n2C [Example 34, N-{2-[2-(4-Amidinophenyl)-ethyl]-1-methyl-benzimidazol-5-yl}-N-methyl-2-[4-(2-naphthyl-N-methylamino)-piperid-1-yl]-acetamide, dihydrochloride]",4 to 30 nM
11,"CN(C(=O)CN1CCC(Nc2ccccc2Br)CC1)c1ccc2c(c1)nc(CCc1ccc(C(=N)N)cc1)n2C [Example 35, N-{2-[2-(4-Amidinophenyl)-ethyl]-1-methyl-benzimidazol-5-yl}-N-methyl-2-[4-(2-bromophenylamino)-piperid-1-yl]-acetamide, dihydrochloride]",0.5 to 3 nM
12,"CN(C(=O)CN1CCC(Nc2ccccc2F)CC1)c1ccc2c(c1)nc(CCc1ccc(C(=N)N)cc1)n2C [Example 36, N-{2-[2-(4-Amidinophenyl)-ethyl]-1-methyl-benzimidazol-5-yl}-N-methyl-2-[4-(2-fluorophenylamino)-piperid-1-yl]-acetamide, dihydrochloride]",0.5 to 3 nM
13,"CN(C(=O)CN1CCC(Nc2ccccc2I)CC1)c1ccc2c(c1)nc(CCc1ccc(C(=N)N)cc1)n2C [Example 37, N-{2-[2-(4-Amidinophenyl)-ethyl]-1-methyl-benzimidazol-5-yl}-N-methyl-2-[4-(2-iodophenylamino)-piperid-1-yl]-acetamide, dihydrochloride]",0.5 to 3 nM
14,"CN(C(=O)CN1CCC(Nc2ccccc2C(F)(F)F)CC1)c1ccc2c(c1)nc(CCc1ccc(C(=N)N)cc1)n2C [Example 38, N-{2-[2-(4-Amidinophenyl)-ethyl]-1-methyl-benzimidazol-5-yl}-N-methyl-2-[4-(2-trifluoromethylphenylamino)-piperid-1-yl]-acetamide, dihydrochloride]",4 to 30 nM
15,"CN(C(=O)CN1CCC(Nc2ccccc2OC(F)(F)F)CC1)c1ccc2c(c1)nc(CCc1ccc(C(=N)N)cc1)n2C [Example 39, N-{2-[2-(4-Amidinophenyl)-ethyl]-1-methyl-benzimidazol-5-yl}-N-methyl-2-[4-(2-trifluoromethoxyphenylamino)-piperid-1-yl]-acetamide, dihydrochloride]",4 to 30 nM
16,"CN(C(=O)CN1CCC(Nc2ccccc2C(=N)N)CC1)c1ccc2c(c1)nc(CCc1ccc(C(=N)N)cc1)n2C [Example 40, N-{2-[2-(4-Amidinophenyl)-ethyl]-1-methyl-benzimidazol-5-yl}-N-methyl-2-[4-(2-amidinophenylamino)-piperid-1-yl]-acetamide, dihydrochloride]",31 to 1000 nM
17,"CN(C(=O)CN1CCC(Nc2ccc3c(c2)Cc2ccccc2-3)CC1)c1ccc2c(c1)nc(CCc1ccc(C(=N)N)cc1)n2C [Example 42, N-{2-[2-(4-Amidinophenyl)-ethyl]-1-methyl-benzimidazol-5-yl}-N-methyl-2-[4-(aminofluorene)-piperid-1-yl]-acetamide, dihydrochloride]",4 to 30 nM
18,"CN(C(=O)CN1CCC(N(Cc2ccccc2)C2CCCN2)CC1)c1ccc2c(c1)nc(CCc1ccc(C(=N)N)cc1)n2C (stereo not shown) [Example 43, N-{2-[2-(4-Amidinophenyl)-ethyl]-1-methyl-benzimidazol-5-yl}-N-methyl-2-{4-[(N-benzyl)-2-pyrrolidylamino]-piperid-1-yl}-acetamide, dihydrochloride]",4 to 30 nM
19,"Cn1c(CCc2ccc(C(=N)N)cc2)nc2cc(N(Cc3ccc(N)cc3)C(=O)CN3CCC(Nc4ccccc4)CC3)ccc21 [Example 44, N-{2-[2-(4-Amidinophenyl)-ethyl]-1-methyl-benzimidazol-5-yl}-N-[4-aminophenyl-methyl]-2-(4-phenylamino-piperid-1-yl)-acetamide, dihydrochloride]",4 to 30 nM
20,"Cn1c(CCc2ccc(C(=N)N)cc2)nc2cc(N(Cc3ccncc3)C(=O)CN3CCC(Nc4ccccc4)CC3)ccc21 [Example 45, N-{2-[2-(4-Amidinophenyl)-ethyl]-1-methyl-benzimidazol-5-yl}-N-[4-pyridylmethyl]-2-(4-phenylamino-piperid-1-yl)-acetamide, dihydrochloride]",4 to 30 nM
21,"Cn1c(CCc2ccc(C(=N)N)cc2)nc2cc(N(Cc3ccncc3)C(=O)CN3CCC(Nc4ccccn4)CC3)ccc21 [Example 46, N-{2-[2-(4-Amidinophenyl)-ethyl]-1-methyl-benzimidazol-5-yl}-N-[4-pyridylmethyl]-2-[4-(2-pyridylamino)-piperid-1-yl]-acetamide, dihydrochloride]",4 to 30 nM
22,"Cn1c(CCc2ccc(C(=N)N)cc2)nc2cc(N(Cc3cccc([N+](=O)[O-])c3)C(=O)CN3CCC(Nc4ccccn4)CC3)ccc21 [Example 50, N-{2-[2-(4-Amidinophenyl)-ethyl]-1-methyl-benzimidazol-5-yl}-N-[3-nitrophenylmethyl]-2-[4-(2-pyridylamino)-piperid-1-yl]-acetamide, dihydrochloride]",4 to 30 nM
23,"CN(C)c1ccc(CN(C(=O)CN2CCC(Nc3ccccn3)CC2)c2ccc3c(c2)nc(CCc2ccc(C(=N)N)cc2)n3C)c2ccccc12 [Example 51, N-{2-[2-(4-Amidinophenyl)-ethyl]-1-methyl-benzimidazol-5-yl}-N-[4-dimethylamino-naphth-1-ylmethyl]-2-[4-(2-pyridylamino)-piperid-1-yl]-acetamide, dihydrochloride]",4 to 30 nM
24,"Cn1c(CCc2ccc(C(=N)N)cc2)nc2cc(NC(=O)CN3CCC(Nc4ccccn4)CC3)ccc21 [Example 52, N-{2-[2-(4-Amidinophenyl)-ethyl]-1-methyl-benzimidazol-5-yl}-2-[4-(2-pyridylamino)-piperid-1-yl]-acetamide, dihydrochloride]",31 to 1000 nM
25,"CCOC(=O)CCN(C(=O)CN1CCC(Nc2ccccn2)CC1)c1ccc2c(c1)nc(CCc1ccc(C(=N)N)cc1)n2C [Example 53, N-{2-[2-(4-Amidinophenyl)-ethyl]-1-methyl-benzimidazol-5-yl}-N-[ethyl ethanecarboxylate]-2-[4-(2-pyridylamino)-piperid-1-yl]-acetamide, dihydrochloride]",4 to 30 nM
